Assay results taken from ChEMBL document CHEMBL4480401, “Determination of Ligand Binding Epitope Structures Using Polarization Transfer from Hyperpolarized Ligands” (J Med Chem, 2019).
The source made the active and inactive calls. No cut-off for these calls is given here.

Target: T1, Dihydrofolate reductase (Homo sapiens) (UniProt P00374)
T1 sequence (whole entry): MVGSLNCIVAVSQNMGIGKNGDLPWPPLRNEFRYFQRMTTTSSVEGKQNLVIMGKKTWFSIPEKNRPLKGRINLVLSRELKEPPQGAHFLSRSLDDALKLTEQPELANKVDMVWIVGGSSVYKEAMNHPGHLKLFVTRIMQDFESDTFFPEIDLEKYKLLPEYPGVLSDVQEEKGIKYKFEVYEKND
Test: Binding affinity to [13C]-labeled DHFR DHFR (unknown origin) expressed in Escherichia coli BL21(DE3) using hyperpolarized compound sample at 1.6 mM by dissolution dynamic nuclear polarization and NMR spectroscopy

With `Nc1nc(=O)c2nc(CNc3ccc(C(=O)N[C@@H](CCC(=O)O)C(=O)O)cc3)cnc2[nH]1` the Activity was “Active”.
